Results taken from PMC3701070 (PLoS ONE, 2013).

Assays:
[1] = test system: Colo 205 tumor xenografts (BRAF^V600E); assay: Colo 205 tumor xenograft growth; format: in vivo, mice
Source text: The 14-day period of dosing is indicated by the shaded gray bar.

Hs746.T = assay: Cell growth assay; format: cell-based; settings: Homo sapiens, Hs746T, 72 h, RAF WT, RAS WT, 3-day, read-out: gIC50
Experimental: (§1) Growth was measured with CellTiter-Glo® (Promega) reagent per the manufacturer’s protocol, using a PerkinElmer EnVision™ reader at t = 0 and 72 h. IC50 values for cell growth inhibition (gIC50) were determined.
(§2) (PDF) Click here for additional data file.

LS-174T = assay: Cell growth assay; format: cell-based; settings: Homo sapiens, LS174T, 72 h, RAF WT, KRAS(G12D), 3-day, read-out: gIC50
Experimental: as §1, §2

ST486 = assay: Cell growth assay; format: cell-based; settings: Homo sapiens, 72 h; ST486, RAF WT, RAS WT, 3-day; read-out: gIC50
Experimental: as §1, §2

UACC-62 = assay: Cell growth assay; format: cell-based; settings: Homo sapiens, 72 h; UACC-62, BRAF(V600E), RAS WT, 3-day; read-out: gIC50
Experimental: as §1, §2

NCI-H157 = assay: Cell growth assay; format: cell-based; settings: Homo sapiens, 72 h; NCI-H157, RAF WT, RAS WT, 3-day; read-out: gIC50
Experimental: as §1, §2

Daudi = assay: Cell growth assay; format: cell-based; settings: Homo sapiens, 72 h, RAF WT, RAS WT, 3-day, read-out: gIC50
Experimental: as §1, §2

UACC-812 = assay: Cell growth assay; format: cell-based; settings: Homo sapiens, 72 h; UACC-812, RAF WT, RAS WT, 3-day; read-out: gIC50
Experimental: as §1, §2

HMCB = assay: Cell growth assay; format: cell-based; settings: Homo sapiens, 72 h, RAF WT, RAS WT, 3-day, read-out: gIC50
Experimental: as §1, §2

J82 = assay: Cell growth assay; format: cell-based; settings: Homo sapiens, 72 h; J82, RAF WT, RAS WT, 3-day; read-out: gIC50
Experimental: as §1, §2

OVCAR-4 = assay: Cell growth assay; format: cell-based; settings: Homo sapiens, 72 h; OVCAR-4, RAF WT, RAS WT, 3-day; read-out: gIC50
Experimental: as §1, §2

SW900 = assay: Cell growth assay; format: cell-based; settings: Homo sapiens, 72 h; SW900, RAF WT, RAS WT, 3-day; read-out: gIC50
Experimental: as §1, §2

NCI-H526 = assay: Cell growth assay; format: cell-based; settings: Homo sapiens, 72 h; NCI-H526, RAF WT, RAS WT, 3-day; read-out: gIC50
Experimental: as §1, §2

C32TG = assay: Cell growth assay; format: cell-based; settings: Homo sapiens, 72 h, BRAF(V600E), RAS WT, 3-day, read-out: gIC50
Experimental: as §1, §2

COR-L23 = assay: Cell growth assay; format: cell-based; settings: Homo sapiens, 72 h; COR-L23, RAF WT, RAS WT, 3-day; read-out: gIC50
Experimental: as §1, §2

CESS = assay: Cell growth assay; format: cell-based; settings: Homo sapiens, 72 h, RAF WT, RAS WT, 3-day, read-out: gIC50
Experimental: as §1, §2

FaDu = assay: Cell growth assay; format: cell-based; settings: Homo sapiens, 72 h, RAF WT, RAS WT, 3-day, read-out: gIC50
Experimental: as §1, §2

786-O = assay: Cell growth assay; format: cell-based; settings: Homo sapiens, 786-0, 72 h, RAF WT, RAS WT, 3-day, read-out: gIC50
Experimental: as §1, §2

HT = assay: Cell growth assay; format: cell-based; settings: Homo sapiens, 72 h, RAF WT, RAS WT, 3-day, read-out: gIC50
Experimental: as §1, §2

Hep3B = assay: Cell growth assay; format: cell-based; settings: Homo sapiens, 72 h, RAF WT, RAS WT, 3-day, read-out: gIC50
Experimental: as §1, §2

KM-12 = assay: Cell growth assay; format: cell-based; settings: Homo sapiens, KM12, 72 h; KM-12, RAF WT, RAS WT, 3-day; read-out: gIC50
Experimental: as §1, §2

SW-837 = assay: Cell growth assay; format: cell-based; settings: Homo sapiens, SW837, 72 h; SW-837, RAF WT, KRAS(G12C), 3-day; read-out: gIC50
Experimental: as §1, §2

NCI-H520 = assay: Cell growth assay; format: cell-based; settings: Homo sapiens, 72 h; NCI-H520, RAF WT, RAS WT, 3-day; read-out: gIC50
Experimental: as §1, §2

SK-N-DZ(note) = assay: Cell growth assay; format: cell-based; settings: Homo sapiens, 72 h, RAF WT, RAS WT, 3-day, read-out: gIC50
Experimental: as §1, §2

SCC-9 = assay: Cell growth assay; format: cell-based; settings: Homo sapiens, 72 h; SCC-9, RAF WT, RAS WT, 3-day; read-out: gIC50
Experimental: as §1, §2

SHP-77 = assay: Cell growth assay; format: cell-based; settings: Homo sapiens, SHP77, 72 h; SHP-77, RAF WT, KRAS(G12V), 3-day; read-out: gIC50
Experimental: as §1, §2

SNU-449 = assay: Cell growth assay; format: cell-based; settings: Homo sapiens, 72 h; SNU-449, RAF WT, RAS WT, 3-day; read-out: gIC50
Experimental: as §1, §2

SF-295 = assay: Cell growth assay; format: cell-based; settings: Homo sapiens, 72 h; SF-295, RAF WT, RAS WT, 3-day; read-out: gIC50
Experimental: as §1, §2

HuT78 = assay: Cell growth assay; format: cell-based; settings: Homo sapiens, 72 h; HuT78, RAF WT, RAS WT, 3-day; read-out: gIC50
Experimental: as §1, §2

NCI-ADR/RES = assay: Cell growth assay; format: cell-based; settings: Homo sapiens, 72 h, RAF WT, RAS WT, 3-day, read-out: gIC50
Experimental: as §1, §2

ES-2 = assay: Cell growth assay; format: cell-based; settings: Homo sapiens, 72 h; ES-2, BRAF(V600E), RAS WT, 3-day; read-out: gIC50
Experimental: as §1, §2

NCI-N87 = assay: Cell growth assay; format: cell-based; settings: Homo sapiens, 72 h; NCI-N87, RAF WT, RAS WT, 3-day; read-out: gIC50
Experimental: as §1, §2

SF-268 = assay: Cell growth assay; format: cell-based; settings: Homo sapiens, 72 h; SF-268, RAF WT, RAS WT, 3-day; read-out: gIC50
Experimental: as §1, §2

LNCaP = assay: Cell growth assay; format: cell-based; settings: Homo sapiens, 72 h, RAF WT, RAS WT, 3-day, read-out: gIC50
Experimental: as §1, §2

CC(C)(C)c1nc(-c2cccc(NS(=O)(=O)c3c(F)cccc3F)c2F)c(-c2ccnc(N)n2)s1 [dabrafenib]
partial regressions ([1]; Colo 205 xenograft, 100 mg/kg oral q.d. x 14): 4 of 8 mice
inhibition of tumor growth ([1]; Colo 205 xenograft, 3, 10, 30 and 100 mg/kg oral q.d. x 14): dose-dependent inhibition of tumor growth
IC50 (Hs746.T): > 10 µM
IC50 (LS-174T): > 10 µM
IC50 (ST486): > 10 µM
IC50 (UACC-62): 0.001 µM
IC50 (NCI-H157): > 10 µM
IC50 (Daudi): > 10 µM
IC50 (UACC-812): > 10 µM
IC50 (HMCB): > 10 µM
IC50 (J82): > 10 µM
IC50 (OVCAR-4): > 10 µM
IC50 (SW900): > 10 µM
IC50 (NCI-H526): > 10 µM
IC50 (C32TG): 0.001 µM
IC50 (COR-L23): > 10 µM
IC50 (CESS): 0.497 µM
IC50 (FaDu): > 10 µM
IC50 (786-O): > 10 µM
IC50 (HT): > 10 µM
IC50 (Hep3B): > 10 µM
IC50 (KM-12): > 10 µM
IC50 (SW-837): > 10 µM
IC50 (NCI-H520): > 10 µM
IC50 (SK-N-DZ(note)): > 10 µM
IC50 (SCC-9): > 10 µM
IC50 (SHP-77): > 10 µM
IC50 (SNU-449): > 10 µM
IC50 (SF-295): > 10 µM
IC50 (HuT78): 0.052 µM
IC50 (NCI-ADR/RES): > 10 µM
IC50 (ES-2): 0.053 µM
IC50 (NCI-N87): > 10 µM
IC50 (SF-268): > 10 µM
IC50 (LNCaP): > 10 µM
